Test results taken from ChEMBL document CHEMBL1151550, “High-affinity FKBP-12 ligands derived from (R)-()-carvone. Synthesis and evaluation of FK506 pyranose ring replacements” (Bioorg Med Chem Lett, 1995).

biological target: Peptidyl-prolyl cis-trans isomerase FKBP1A (Homo sapiens, UniProt P62942); experiment: Inhibitory activity of compound against FK506 binding protein 12 was determined; conditions: read-out: Ki app
Sequence (P62942 whole entry): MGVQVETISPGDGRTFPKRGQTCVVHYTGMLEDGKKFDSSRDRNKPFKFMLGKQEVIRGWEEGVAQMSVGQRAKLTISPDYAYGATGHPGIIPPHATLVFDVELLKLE

SMILES | Ki [nM]
COC(CC(C)C)[C@@H]1CC[C@@H](C)[C@](O)(C(=O)C(=O)N2CCCC[C@H]2C(=O)OCc2ccccc2)C1 (stereo partly specified) | 2.8
CC(C)[C@@H]1CC[C@@H](C)[C@](O)(C(=O)C(=O)N2CCCC[C@H]2C(=O)OCc2ccccc2)C1 | 210
C/C=C\C(OC)[C@@H]1CC[C@@H](C)[C@](O)(C(=O)C(=O)N2CCCC[C@H]2C(=O)OCc2ccccc2)C1 (stereo partly specified) | 112
COC(C=C(C)C)[C@@H]1CC[C@@H](C)[C@](O)(C(=O)C(=O)N2CCCC[C@H]2C(=O)OCc2ccccc2)C1 (stereo partly specified) | 68
COC[C@@H]1CC[C@@H](C)[C@](O)(C(=O)C(=O)N2CCCC[C@H]2C(=O)OCc2ccccc2)C1 | 258
COC(C)[C@@H]1CC[C@@H](C)[C@](O)(C(=O)C(=O)N2CCCC[C@H]2C(=O)OCc2ccccc2)C1 (stereo partly specified) | 81
